# Source: publication PMC3444501, “Therapeutic Effects of Astragaloside IV on Myocardial Injuries: Multi-Target Identification and Network Analysis” (PLoS ONE, 2012)
# How the values were obtained:
# [1] = biological target: angiotensin-converting enzyme (ACE) (Homo sapiens, UniProt P12821); test: ACE activity of HUVECs (hippuric acid release from HHL) after 20-min incubation with AGS-IV; format: cell-based
# [2] = system: T1, calcineurin (CN); test: calcineurin activity kit (RII phosphopeptide, malachite green) in rat VSMCs after 24-h pretreatment; format: cell-based
# T1 construct: gene Ppp3ca; with calcineurin B (CnB, regulatory subunit)
# angiotensin-converting enzyme (ACE), sequence (P12821 30-1306): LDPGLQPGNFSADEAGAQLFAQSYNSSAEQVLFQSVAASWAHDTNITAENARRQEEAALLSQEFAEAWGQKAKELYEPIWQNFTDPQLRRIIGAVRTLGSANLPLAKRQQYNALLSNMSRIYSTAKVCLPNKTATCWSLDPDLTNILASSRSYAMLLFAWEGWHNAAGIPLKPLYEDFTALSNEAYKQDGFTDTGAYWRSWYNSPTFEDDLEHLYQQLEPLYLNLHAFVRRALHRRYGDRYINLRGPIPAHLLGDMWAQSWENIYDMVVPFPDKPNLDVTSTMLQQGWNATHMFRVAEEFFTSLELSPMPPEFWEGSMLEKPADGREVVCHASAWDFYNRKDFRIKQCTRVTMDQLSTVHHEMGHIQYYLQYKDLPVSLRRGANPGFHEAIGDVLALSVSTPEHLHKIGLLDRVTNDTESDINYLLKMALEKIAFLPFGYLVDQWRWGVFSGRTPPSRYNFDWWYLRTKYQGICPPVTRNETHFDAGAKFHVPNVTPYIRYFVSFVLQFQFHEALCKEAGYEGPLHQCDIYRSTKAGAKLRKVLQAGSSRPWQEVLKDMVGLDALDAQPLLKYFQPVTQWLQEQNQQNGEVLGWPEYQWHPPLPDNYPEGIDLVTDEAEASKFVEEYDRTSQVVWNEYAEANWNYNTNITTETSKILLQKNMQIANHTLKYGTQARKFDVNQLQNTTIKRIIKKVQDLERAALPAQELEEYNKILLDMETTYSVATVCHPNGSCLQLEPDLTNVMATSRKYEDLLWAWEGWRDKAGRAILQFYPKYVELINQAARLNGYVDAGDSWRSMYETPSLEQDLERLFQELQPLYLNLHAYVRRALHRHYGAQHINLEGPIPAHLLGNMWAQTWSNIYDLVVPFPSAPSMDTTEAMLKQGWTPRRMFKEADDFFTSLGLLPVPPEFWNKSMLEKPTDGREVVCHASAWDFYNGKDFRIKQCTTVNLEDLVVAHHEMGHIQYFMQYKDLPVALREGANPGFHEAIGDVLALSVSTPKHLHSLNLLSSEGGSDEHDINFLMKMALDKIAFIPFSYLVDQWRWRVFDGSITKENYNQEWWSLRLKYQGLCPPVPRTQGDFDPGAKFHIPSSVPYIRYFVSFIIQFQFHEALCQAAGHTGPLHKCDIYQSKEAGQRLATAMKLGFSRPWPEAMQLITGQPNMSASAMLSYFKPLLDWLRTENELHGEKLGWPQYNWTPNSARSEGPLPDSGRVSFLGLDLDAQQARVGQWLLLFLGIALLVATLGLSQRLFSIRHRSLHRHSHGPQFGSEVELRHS
smiles,measurement,setting,value
"CC(C)(O)[C@@H]1CC[C@](C)([C@H]2[C@@H](O)C[C@@]3(C)[C@@H]4C[C@H](O[C@@H]5O[C@H](CO)[C@@H](O)[C@H](O)[C@H]5O)[C@H]5C(C)(C)[C@@H](O[C@@H]6OC[C@@H](O)[C@H](O)[C@H]6O)CC[C@@]56C[C@@]46CC[C@]23C)O1 [AGS-IV, Astragaloside IV]",IC50,[1],268 nM
same,IC50,[2],403 nM
